Test results from patent publication US11180811B2, “Molecular signatures of conditions associated with longevity” (The Brigham and Women's Hospital, Inc., priority 2014, dated 2021).

What was measured:
[1] = test system: Kidney longevity gene expression signature; assay: Compounds that shift gene expression in the direction of longevity (Table 6), kidney
Source text: (§1) The methods, assays, and systems described herein can be useful in a number of areas, including the discovery and validation of new targets for reducing rate of aging, extending lifespan, reducing incidence and delaying onset of disease and improving overall health of aging populations. Furthermore, the invention can facilitate the discovery and development of drugs, biologicals and treatment regimens based on the above that favorably intervene in the aging process. For example, the gene expression signatures described herein can be used to choose target gene products in a therapeutic protocol, to elaborate the biological function of the target gene product in the aging process, and to identify compounds that alleviate deterioration associated with aging by modulating the activity of target gene products. For example, several compounds that shift gene expression in the direction of longevity have been identified or validated using the assays or methods described herein (Table 6).
(§2) In Table 6, several compounds that shift gene expression in the direction of longevity have been identified or validated.

[2] = test system: Brain longevity gene expression signature; assay: Compounds that shift gene expression in the direction of longevity (Table 6), brain
Source text: as §1, §2

[3] = test system: Liver longevity gene expression signature; assay: Compounds that shift gene expression in the direction of longevity (Table 6), liver
Source text: as §1, §2

mice = conditions: elevated growth hormone treatment during development (Panici et al., 2010); cited from earlier work

Compound	Direction of lifespan associated with the compound's shift of gene expression (Increased lifespan / Decreased lifespan) [2]	Direction of lifespan associated with the compound's shift of gene expression (Increased lifespan / Decreased lifespan) [3]	also measured
CCCCC/C=C/C=C1/C(=O)C=C[C@@H]1C/C=C\CCCC(=O)O [15Δ prostaglandin J2]	Decreased	Decreased	Direction of lifespan associated with the compound's shift of gene expression (Increased lifespan / Decreased lifespan) [1]: Decreased
CO[C@H]1/C=C\C=C(/C)C(=O)NC2=CC(=O)C(NCCN(C)C)=C(C[C@@H](C)C[C@H](OC)[C@H](O)[C@@H](C)/C=C(\C)[C@@H]1OC(N)=O)C2=O [Alvespimycin]	Decreased	–	–
NC12CC3CC(CC(C3)C1)C2 [Amantadine]	Increased	–	–
CN(C)CCOC(C)(c1ccccc1)c1ccccn1 (centres unmarked) [Doxylamine]	–	Decreased	–
C[C@H]1O[C@@H](O[C@H]2CC[C@]3(C=O)[C@H]4CC[C@]5(C)[C@@H](C6=CC(=O)OC6)CC[C@]5(O)[C@@H]4CC[C@]3(O)C2)C[C@H](O)[C@@H]1O [Helveticoside]	–	Increased	–
CCc1c2c(nc3ccc(OC(=O)N4CCC(N5CCCCC5)CC4)cc13)-c1cc3c(c(=O)n1C2)COC(=O)[C@]3(O)CC [Irinotecan]	Increased	–	Direction of lifespan associated with the compound's shift of gene expression (Increased lifespan / Decreased lifespan) [1]: Increased
O[C@H]1[C@H]2c3cc4c(cc3CN3CCC(=C[C@@H]1O)[C@H]23)OCO4 [Lycorine]	–	–	Direction of lifespan associated with the compound's shift of gene expression (Increased lifespan / Decreased lifespan) [1]: Decreased
C[C@@H]1C[C@H]2O[C@@H]2/C=C\C=C\C(=O)Cc2c(Cl)c(O)cc(O)c2C(=O)O1 [Monorden]	–	Decreased	–
Oc1ccc(C=Cc2cc(O)cc(O)c2)cc1 [Resveratrol]	–	Increased	–
Artemizole	–	Increased	–
growth hormone	–	–	Effect on lifespan (mice): shortens lifespan
